Laboratory results as given in patent US5849863A, “Cytolytic bradykinin antagonists” (University of Colorado, priority 1995, dated 1998).
No end group written: not given here.

Key:
SCLC cell lines [1] = assay: Growth of SCLC cell lines (MTT assay); type: cell-based, human; conditions: result in words
Method: (§1) The effectiveness of the antagonist compounds in inhibiting cancer cell growth in vitro was determined using a panel of human lung cancer cell lines: SCLC--SHP77, H345 and NSCLC--A549, H450; breast carcinoma McF7, normal human epithelial BEAS and normal human skin fibroblast FS 15 were used to study the specificity and cytotoxicity of the BK antagonist dimers. Cell lines were treated with various concentrations of dimers for 5 to 7 days and cell viability were measured with routine MTT assay. Cells treated with BK dimers were also be evaluated for apoptosis using our newly developed cytometric technique.
(§2) Cellular growth and survival was measured by a rapid colorimetric assay, based on the tetrazolium salt MTT, (3-(4,5-dimethylthiazol-2-yl)-2,5-diphenyl tetrazolium bromide), developed by Mosmann (J. of Immun. Methods, 65, 55-63, 1983) with minor modifications. Briefly, 1,000 normal lung fibroblasts or normal epithelial BEAS-2B cells, 1,000 or 5,000 viable NSCLC cell and 10,000 viable SCLC cell were plated in a 100 μl volume of growth medium in 96 well flat-bottomed microtiter plates. The cells were allowed to recover overnight. Bradykinin antagonists at various concentrations were added to the cells in triplicates and the plates were incubated at 37° C., 5% CO2 with 100% humidity. […] Absorbance at 490 nm was immediately determined using a scannning multiwell plate reader.

Stability in plasma = type: in vitro ADME
SCLC cell lines [2] = assay: Apoptosis in SCLC / lung cancer cells; type: cell-based, human; conditions: inhibitory concentrations; data not shown
[3] = tested on: Calcium flux in response to CCK; assay: Calcium flux assay, response to CCK or gastrin; type: cell-based
Method: (§3) Briefly, mechanically dispersed single cell suspensions of plateau phase cells (7 days after splitting) were suspended in 20 mM HEPES/BSS buffer (20 mM Hepes/140 mM NaCl/5mM KCI/1 mM MgCl2 /5 mM Glucose) adjusted to pH 6,8 at 37° C. The acetoxymethyl ester form of Indo-1 (Indo-AM) at 5 μM was incubated with the cells for 30 min at 37° C. and then diluted with 1:1 with 20 mM HEPES/BSS buffer, pH 7.4 to raise the final pH to 7.1 followed by a second 30-min incubation at 37° C.
(§4) UV excitation (80 mW at 360 nm) was delivered by a model INNOVA 90/5 argon ion laser (Coherent, Palo Alto, Calif.). […] Thus, the ratio of the 410 nm fluorescence/490 nm fluorescence constitutes a measure of the changes in calcium ions liberated form intracellular stores (Endoplasmic reticulum) in response to various stimuli. Viable, loaded cells were distinguished by the machine form debris, dead cells, and unloaded cells by forward angle and 90° light scatter and 490 nm fluorescence. […] Data were collected by the MDADS computer including 410 nm and 490 nm fluorescence intensities and the ratio of 410/490 fluorescence intensity was secured as a function of time. […] The data were analyzed by a program developed by Philip Jewett.

[4] = tested on: Calcium flux in response to BK; assay: Calcium flux assay, response to BK; type: cell-based; conditions: read-out: IC50 Ca2+ (BK)
Method: as §3, §4

SCLC cell line SHP-77 = assay: Colorimetric MTT assay, growth of SCLC cell line SHP-77; type: cell-based, human
Method: as §1
as §2, with “reader. […]” for “reader.”

guinea pig ileum = conditions: agonist reference value; cited from earlier work
rat uterus = conditions: agonist reference value; cited from earlier work
[5] = tested on: intracellular Ca++ release, human lung cancer cell lines; conditions: Bunn et al. 1992; cited from earlier work

Row | Molecule | growth inhibition, SCLC cell lines (SCLC cell lines [1]) | stable in plasma (Stability in plasma) | half-life (Stability in plasma; stability in plasma, read-out: Plasma t1/2) [h] | apoptotic response in SCLC cell lines (SCLC cell lines [2]) | % Inhibition CCK Ca2+ [3] [%] | IC50 [4] [nM] | effect on SCLC growth (SCLC cell line SHP-77; concentration up to 40 μM, SHP-77) | IC50 (SCLC cell line SHP-77; growth of SCLC cell line SHP-77) [nM] | pD2 (negative logarithm of the dose of bradykinin that causes half-maximal contraction) (guinea pig ileum) | pD2 (negative logarithm of the dose of bradykinin that causes half-maximal contraction) (rat uterus) | stimulation of intracellular Ca++ release [5]
1 | NC(N)=NCCC[C@@H](N)C(=O)N[C@@H](CCCN=C(N)N)C(=O)N1CCC[C@H]1C(=O)N1C[C@H](O)C[C@H]1C(=O)NCC(=O)N[C@@H](Cc1cccs1)C(=O)N[C@@H](CO)C(=O)N1Cc2ccccc2C[C@@H]1C(=O)N1[C@H](C(=O)N[C@@H](CCCN=C(N)N)C(=O)O)C[C@@H]2CCCC[C@@H]21 [Compound B116] | no growth inhibition | stable in plasma | > 24 | no growth inhibition or apoptotic response | 0 | 10 | little effect | > 40000 |  |  | 
2 | RPPGFSPFR [bradykinin, Arg^1 -Pro^2 -Pro^3 -Gly^4 -Phe^5 -Ser^6 -Pro^7 Phe^8 -Arg^9] |  |  |  |  |  |  |  |  | 7.4 | 7.9 | most potent peptide stimulant of intracellular Ca^++ release
